Reference: US10654828B2 (NOVARTIS AG, priority 2017, dated 2020)
Where two headings read alike, the source gives them in different places.

Key:
AKT = AKT activation: Phospho-AKT (Ser473) antibody staining in reporter cells; format: cell-based; details: U2OS GFP-FoxO3a H212R cells, serum starved overnight, compound 30 minutes, total cellular intensity of Phospho-AKT (Ser473) staining, DMSO control 0%
Experimental: (§1) Phosphorylation of AKT on S473 and FoxO3a nuclear to cytoplasmic translocation were used as readouts of PI3K/Akt/mTOR pathway activation downstream of growth factor signaling.
(§2) Reporter cell line. U2OS GFP-FoxO3a H212R reporter cell line was established by transducing U2OS cells with the retroviral plasmid pLEGFP-C1 containing FoxO3a H212R transgene and selecting for G418 resistant clones.
(§3) Reporter assay. U2OS GFP-FoxO3a H212R cells were plated in 384-well plates at 4000 cells per well in 30 microliters of McCoy's 5 A medium containing 10% FBS. On day 1 the cells were washed with serum free medium and serum starved overnight. On day 2 the cells were treated with different doses of the compounds for 30 minutes, fixed with 4% Paraformaldehyde for 1 hour and stained with Phospho-AKT (Ser473) antibody (Cell Signaling Technology, catalog #4060) overnight at 4 degrees Celsius. After nuclei staining with Hoechst 33342 (Life Technologies, catalog # H3570) the plates were imaged with InCell 2000 (GE Healthcare Bio-Sciences). FoxO3a inhibition activity is calculated as the ratio of nuclear to cytosolic GFP intensity in percent. AKT activation is measured as the total cellular intensity of Phospho-AKT antibody staining in percent. DMSO control is set as 0% activity.

FoxO3a = FoxO3a inhibition: GFP-FoxO3a nuclear to cytoplasmic translocation reporter assay; format: cell-based; details: U2OS GFP-FoxO3a H212R cells, serum starved overnight, compound 30 minutes, ratio of nuclear to cytosolic GFP intensity, DMSO control 0%, read-out: FoxO AC50
Experimental: as §1, §2, §3

| Compound | AC50 (AKT; Homo sapiens, U2OS, 0.5 h) [nM] | AC50 (FoxO3a; Homo sapiens, U2OS, 0.5 h) [nM] | AC50 (AKT) [nM] | AC50 (FoxO3a) [nM] |
| --- | --- | --- | --- | --- |
| Cc1cc(C(N)=O)nn1-c1ccc2c(ccn2Cc2ccc(-c3ccc(CN)cc3)cc2)c1 [Example 1-34, 1-(1-((4′-(aminomethyl)-[1,1′-biphenyl]-4-yl)methyl)-1H-indol-5-yl)-5-methyl-1H-pyrazole-3-carboxamide] | 743 | 248 | – | – |
| Cc1cc(C(N)=O)nn1-c1ccc2c(ccn2Cc2ccc(C3=CCN4CCCC3C4)cc2)c1 (single isomer, unassigned) [Example 14, 1-(1-(4-(1-azabicyclo[3.3.1]non-3-en-4-yl)benzyl)-1H-indol-5-yl)-5-methyl-1H-pyrazole-3-carboxamide] | – | – | 2100 | 652 |
| Cc1cc(C(N)=O)nn1-c1ccc2c(ccn2Cc2ccc(C3=CCCN(C)C3)cc2)c1 [Example 1-8, 5-methyl-1-(1-(4-(1-methyl-1,2,5,6-tetrahydropyridin-3-yl)benzyl)-1H-indol-5-yl)-1H-pyrazole-3-carboxamide] | > 10000 | 517 | – | – |
| Cc1cc(C(N)=O)nn1-c1ccc2c(ccn2Cc2ccc(-c3ccc(O)c(F)c3)cc2)c1 [Example 1-15, 1-(1-((3′-fluoro-4′-hydroxy-[1,1′-biphenyl]-4-yl)methyl)-1H-indol-5-yl)-5-methyl-1H-pyrazole-3-carboxamide] | 172 | 56 | – | – |
| Cc1cc(C(N)=O)nn1-c1ccc2c(ccn2Cc2ccc(-c3ccc(C(C)(C)O)cn3)cc2)c1 [Example 30-2, 1-(1-(4-(5-(2-hydroxypropan-2-yl)pyridin-2-yl)benzyl)-1H-indol-5-yl)-5-methyl-1H-pyrazole-3-carboxamide] | 320 | 223 | – | – |
| Cc1cc(C(N)=O)nn1-c1ccc2c(ccn2Cc2ccc(-c3cnc4[nH]ccc4c3)cc2)c1 [Example 1-16, 1-(1-(4-(1H-pyrrolo[2,3-b]pyridin-5-yl)benzyl)-1H-indol-5-yl)-5-methyl-1H-pyrazole-3-carboxamide] | 451 | 147 | – | – |
| Cc1cc(C(N)=O)nn1-c1ccc2c(ccn2Cc2ccc(-c3ccc(S(=O)(=O)N(C)C)cc3)cc2)c1 [Example 1-13, 1-(1-((4′-(N,N-dimethylsulfamoyl)-[1,1′-biphenyl]-4-yl)methyl)-1H-indol-5-yl)-5-methyl-1H-pyrazole-3-carboxamide] | 230 | 84 | – | – |
| Cc1cc(C(N)=O)nn1-c1ccc2c(ccn2Cc2ccc(CC3CN(C)C3)cc2)c1 [Example 32, 5-methyl-1-(1-(4-((1-methylazetidin-3-yl)methyl)benzyl)-1H-indol-5-yl)-1H-pyrazole-3-carboxamide] | 4360 | 1040 | – | – |
| Cc1cc(C(N)=O)nn1-c1ccc2c(ccn2Cc2ccc(-c3ccc(S(C)(=O)=O)nc3)cc2)c1 [Example 30-1, 5-methyl-1-(1-(4-(6-(methylsulfonyl)pyridin-3-yl)benzyl)-1H-indol-5-yl)-1H-pyrazole-3-carboxamide] | 633 | 124 | – | – |
| Cc1cc(C(N)=O)nn1-c1ccc2c(ccn2Cc2ccc(-c3ccc(C#N)cc3)cc2)c1 [Example 1-5, 1-(1-((4′-cyano-[1,1′-biphenyl]-4-yl)methyl)-1H-indol-5-yl)-5-methyl-1H-pyrazole-3-carboxamide] | > 10000 | 285 | – | – |
| Cc1cc(C(N)=O)nn1-c1ccc2c(ccn2Cc2ccc([C@@]34C[C@@H]3CN(C)C4)cc2)c1 [Example 33, 5-methyl-1-(1-(4-((1R,5S)-3-methyl-3-azabicyclo[3.1.0]hexan-1-yl)benzyl)-1H-indol-5-yl)-1H-pyrazole-3-carboxamide] | 2810 | 383 | – | – |
| Cc1cc(C(N)=O)nn1-c1ccc2c(ccn2Cc2ccc(-c3ccc(N)cc3)cc2)c1 [Example 1-26, 1-(1-((4′-amino-[1,1′-biphenyl]-4-yl)methyl)-1H-indol-5-yl)-5-methyl-1H-pyrazole-3-carboxamide] | > 10000 | 129 | – | – |
| Cc1cc(C(N)=O)nn1-c1ccc2c(c1)c(C1CCOCC1)cn2Cc1ccc(-c2ccc(S(C)(=O)=O)cc2)cc1 [Example 20, 5-methyl-1-(1-((4′-(methylsulfonyl)-[1,1′-biphenyl]-4-yl)methyl)-3-(tetrahydro-2H-pyran-4-yl)-1H-indol-5-yl)-1H-pyrazole-3-carboxamide] | 186 | 68 | – | – |
| Cc1cc(C(N)=O)nn1-c1ccc2c(ccn2Cc2ccc(-c3ccc(S(=O)(=O)N4CCN(C)CC4)cc3)cc2)c1 [Example 1-11, 5-methyl-1-(1-((4′-((4-methylpiperazin-1-yl)sulfonyl)-[1,1′-biphenyl]-4-yl)methyl)-1H-indol-5-yl)-1H-pyrazole-3-carboxamide] | 388 | 69 | – | – |
| Cc1cc(C(N)=O)nn1-c1ccc2c(ccn2Cc2ccc(C3=C[C@H]4CNC[C@H]4C3)cc2)c1 (racemic) [Example 24, (cis)-1-(1-(4-(1,2,3,3a,4,6a-hexahydrocyclopenta[c]pyrrol-5-yl)benzyl)-1H-indol-5-yl)-5-methyl-1H-pyrazole-3-carboxamide] | 1200 | 381 | – | – |
| Cc1cc(C(N)=O)nn1-c1ccc2c(ccn2Cc2ccc(-c3ccc4c(c3)CCNC4=O)cc2)c1 [Example 1-25, 5-methyl-1-(1-(4-(1-oxo-1,2,3,4-tetrahydroisoquinolin-6-yl)benzyl)-1H-indol-5-yl)-1H-pyrazole-3-carboxamide] | 197 | 56 | – | – |
| Cc1cc(C(N)=O)nn1-c1ccc2c(ccn2Cc2ccc(C3=CCNCC3)cc2)c1 [Example 3, 5-methyl-1-(1-(4-(1,2,3,6-tetrahydropyridin-4-yl)benzyl)-1H-indol-5-yl)-1H-pyrazole-3-carboxamide] | 1170 | 476 | – | – |
| COCCCc1cn(Cc2ccc(-c3ccc(S(C)(=O)=O)cc3)cc2)c2ccc(-n3nc(C(N)=O)cc3C)cc12 [Example 23, 1-(3-(3-methoxypropyl)-1-((4′-(methylsulfonyl)-[1,1′-biphenyl]-4-yl)methyl)-1H-indol-5-yl)-5-methyl-1H-pyrazole-3-carboxamide] | 173 | 56 | – | – |
| Cc1cc(C(N)=O)nn1-c1ccc2c(ccn2Cc2ccc(C3CCN(C)C3)cc2)c1 (racemic) [Example 2-1, rac-5-methyl-1-(1-(4-(1-methylpyrrolidin-3-yl)benzyl)-1H-indol-5-yl)-1H-pyrazole-3-carboxamide] | 2510 | 733 | – | – |
| Cc1cc(C(N)=O)nn1-c1ccc2c(ccn2Cc2ccc(-c3cnc4c(c3)OCCN4C)cc2)c1 [Example 1-9, 5-methyl-1-(1-(4-(4-methyl-3,4-dihydro-2H-pyrido[3,2-b][1,4]oxazin-7-yl)benzyl)-1H-indol-5-yl)-1H-pyrazole-3-carboxamide] | 318 | 109 | – | – |
| Cc1cc(C(N)=O)nn1-c1ccc2c(ccn2Cc2ccc(C3CCCN(C)CC3)cc2)c1 (single isomer, unassigned) [Example 29-2, 5-methyl-1-(1-(4-(1-methylazepan-4-yl)benzyl)-1H-indol-5-yl)-1H-pyrazole-3-carboxamide] | – | – | 2100 | 818 |
| Cc1cc(C(N)=O)nn1-c1ccc2c(ccn2Cc2ccc(C3=CCN(C)CC3C)cc2)c1 (single isomer, unassigned) [Example 17-2, 1-(1-(4-(1,3-dimethyl-1,2,3,6-tetrahydropyridin-4-yl)benzyl)-1H-indol-5-yl)-5-methyl-1H-pyrazole-3-carboxamide] | – | – | 123 | 47 |
| Cc1cc(C(N)=O)nn1-c1ccc2c(ccn2Cc2ccc(-c3ccc(C(=O)NCCN4CCOCC4)cc3)cc2)c1 [Example 1-38, 5-methyl-1-(1-((4′-((2-morpholinoethyl)carbamoyl)-[1,1′-biphenyl]-4-yl)methyl)-1H-indol-5-yl)-1H-pyrazole-3-carboxamide] | 240 | 78 | – | – |
| COc1ncc(-c2ccc(Cn3ccc4cc(-n5nc(C(N)=O)cc5C)ccc43)cc2)cn1 [Example 1-28, 1-(1-(4-(2-methoxypyrimidin-5-yl)benzyl)-1H-indol-5-yl)-5-methyl-1H-pyrazole-3-carboxamide] | 1170 | 223 | – | – |
| Cc1cc(C(N)=O)nn1-c1ccc2c(ccn2Cc2ccc(-c3ccc(CN4CCNCC4)cc3)cc2)c1 [Example 35, 5-methyl-1-(1-((4′-(piperazin-1-ylmethyl)-[1,1′-biphenyl]-4-yl)methyl)-1H-indol-5-yl)-1H-pyrazole-3-carboxamide] | 603 | 181 | – | – |
| Cc1cc(C(N)=O)nn1-c1ccc2c(ccn2Cc2ccc(C3=CCN(C)CC3(C)C)cc2)c1 [Example 15-2, 5-methyl-1-(1-(4-(1,3,3-trimethyl-1,2,3,6-tetrahydropyridin-4-yl)benzyl)-1H-indol-5-yl)-1H-pyrazole-3-carboxamide] | 389 | 197 | – | – |
